# Laboratory results reported in patent US20190210996A1, “NOVEL COMPOUNDS” (GLAXOSMITHKLINE INTELLECTUAL PROPERTY DEVELOPMENT LIMITED, priority 2016, published 2019).
# Columns and labels:
# Assay type in all cases: cell-based
# AURKA = target: T1, AURKA (Homo sapiens, UniProt O14965); assay: Expression proteomics in THP-1 cells: AURKA protein level
# T1 construct: endogenous in cells; host or cells: THP-1
# T1 sequence (O14965 1-403): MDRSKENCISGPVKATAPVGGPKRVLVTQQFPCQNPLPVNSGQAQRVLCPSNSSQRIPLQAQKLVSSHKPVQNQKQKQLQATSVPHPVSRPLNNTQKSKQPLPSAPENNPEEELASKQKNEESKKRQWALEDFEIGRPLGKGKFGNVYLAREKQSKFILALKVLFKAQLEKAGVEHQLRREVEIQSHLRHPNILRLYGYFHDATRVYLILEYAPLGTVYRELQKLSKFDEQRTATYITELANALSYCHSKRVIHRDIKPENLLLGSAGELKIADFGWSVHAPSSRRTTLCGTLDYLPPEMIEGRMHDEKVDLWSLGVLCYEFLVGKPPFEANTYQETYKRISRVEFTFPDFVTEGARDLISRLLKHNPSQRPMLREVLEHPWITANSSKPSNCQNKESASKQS
# Protocol: (§1) THP-1 cells were seeded at a concentration of 3×10^6 cells in T175 flasks with 60 mL growth medium (RPMI1640+10% FBS). […] of a 10× compound solution prepared in growth medium (DMSO), CEREBLON_PROTAC) was added and the cells were treated for the indicated time points (6 or 24 h) at 37° C., 5% CO2. For harvesting the cells were collected into falcon tubes on ice, centrifuged and washed twice in cold PBS (Life technologies). After the last washing step the supernatant was removed and the pellets were snap-frozen in liquid N2 and stored at −80° C. and lysed in 2% SDS for 3 min at 95° C. in a thermomixer (Thermo Fisher Scientific), followed by digestion of DNA with Benzonase at 37° C. for 1.5 h. Lysate was cleared by centrifugation an protein concentration in supernatant was determined by BCA assay.
# (§2) Leukemia 25, 89-100 (2011).
# (§3) Samples were dried in vacuo and resuspended in 0.05% trifluoroacetic acid in water. Of the sample, 50% was injected into an Ultimate3000 nanoRLSC (Dionex, Sunnyvale, Calif.) coupled to a Q Exactive HF (Thermo Fisher Scientific). Peptides were trapped on a 5 mm×300 μm C18 column (Pepmap100, 5 μm, 300 Å, Thermo Fisher Scientific) in water with 0.05% TFA at 60° C. Separation was performed on custom 50 cm×[…] (ID) reversed-phase columns (Reprosil) at 55° C. Gradient elution was performed from 2% acetonitrile to 40% acetonitrile in 0.1% formic acid and 3.5% DMSO over 2 hours. Samples were online injected into Q-Exactive HF mass spectrometers operating with a data-dependent top 10 method. MS spectra were acquired by using 60.000 resolution and an ion target of 3×10^6. Higher energy collisional dissociation (HCD) scans were performed with 35% NCE at 30.000 resolution (at m/z 200), and the ion target settings was set to 2×10^5 so as to avoid coalescence (Werner, T. et al. Ion Coalescence of Neutron Encoded TMT 10-Plex Reporter Ions. Anal. Chem. 86, 3594-3601 (2014).
# (§4) The first search was performed with 30 parts per million mass tolerance for peptide precursors and 30 mD (HCD) mass tolerance for fragment ions followed by a final search using recalibrated data with a 10 parts per million mass tolerance for peptide precursors and 20 mD (HCD) mass tolerance for fragment ions. Carbamidomethylation of cysteine residues and TMT modification of lysine residues were set as fixed modifications and methionine oxidation, and N-terminal acetylation of proteins and TMT modification of peptide N-termini were set as variable modifications. […]
# (§5) Nat Biotech 29, 255-265 (2011). this measure is referred to as ion area Savitski, M. M. et al. Delayed Fragmentation and Optimized Isolation Width Settings for Improvement of Protein Identification and Accuracy of Isobaric Mass Tag Quantification on Orbitrap-Type Mass Spectrometers. […]
# BTK = target: T2, BTK (Homo sapiens, UniProt Q06187); assay: Expression proteomics in THP-1 cells: BTK protein level
# T2 construct: endogenous in cells; host or cells: THP-1
# T2 sequence (Q06187 whole entry): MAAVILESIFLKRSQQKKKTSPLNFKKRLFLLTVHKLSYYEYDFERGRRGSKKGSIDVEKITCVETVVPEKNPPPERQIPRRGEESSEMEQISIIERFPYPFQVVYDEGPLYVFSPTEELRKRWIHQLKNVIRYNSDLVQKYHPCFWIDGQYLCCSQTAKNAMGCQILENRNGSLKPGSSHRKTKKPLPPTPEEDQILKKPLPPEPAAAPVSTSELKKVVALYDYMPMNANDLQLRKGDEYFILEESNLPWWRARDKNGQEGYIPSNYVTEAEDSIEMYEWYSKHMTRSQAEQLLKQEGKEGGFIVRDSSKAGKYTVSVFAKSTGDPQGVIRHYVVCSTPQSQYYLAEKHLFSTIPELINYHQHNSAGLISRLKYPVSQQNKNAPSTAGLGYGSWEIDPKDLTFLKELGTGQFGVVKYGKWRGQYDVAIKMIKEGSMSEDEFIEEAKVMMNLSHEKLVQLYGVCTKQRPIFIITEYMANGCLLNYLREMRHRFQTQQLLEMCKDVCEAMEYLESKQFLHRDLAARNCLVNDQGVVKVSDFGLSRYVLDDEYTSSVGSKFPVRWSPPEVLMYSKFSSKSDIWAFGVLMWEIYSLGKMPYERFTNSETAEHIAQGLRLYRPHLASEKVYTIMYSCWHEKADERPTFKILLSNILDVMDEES
# Protocol: as §1, §2, §3, §4, §5
# MAPK9 = target: T3, MAPK9 (Homo sapiens, UniProt P45984); assay: Expression proteomics in THP-1 cells: MAPK9 protein level; settings: MAPK9, THP-1 cells
# T3 construct: endogenous in cells; host or cells: THP-1
# T3 sequence (P45984 whole entry): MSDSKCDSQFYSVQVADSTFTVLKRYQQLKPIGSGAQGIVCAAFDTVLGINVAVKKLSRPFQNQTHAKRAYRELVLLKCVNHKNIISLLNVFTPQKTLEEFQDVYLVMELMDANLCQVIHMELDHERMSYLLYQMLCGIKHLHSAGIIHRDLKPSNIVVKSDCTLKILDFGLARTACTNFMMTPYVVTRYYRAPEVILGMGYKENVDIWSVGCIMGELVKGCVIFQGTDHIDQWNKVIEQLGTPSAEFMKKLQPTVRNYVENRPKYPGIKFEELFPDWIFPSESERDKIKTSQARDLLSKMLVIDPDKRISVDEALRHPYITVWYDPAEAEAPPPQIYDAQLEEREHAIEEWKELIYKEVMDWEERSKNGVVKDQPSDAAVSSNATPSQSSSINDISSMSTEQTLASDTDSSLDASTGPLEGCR
# Protocol: as §1, §2, §3, §4, §5
smiles,measurement,setting,value
"CNC(=O)c1ccccc1Nc1nc(Nc2ccc(N3CCN(CCOCCOCCOCCOCC(=O)Nc4cccc5c4CN(C4CCC(=O)NC4=O)C5=O)CC3)cc2)ncc1Cl.O=CO (stereo not drawn) [CEREBLON_PROTAC, 14-(4-(4-((5-Chloro-4-((2-(methylcarbamoyl)phenyl)amino)pyrimidin-2-yl)amino)phenyl)piperazin-1-yl)-N-(2-(2,6-dioxopiperidin-3-yl)-1-oxoisoindolin-4-yl)-3,6,9,12-tetraoxatetradecan-1-amide formate]",log2 rel. fc. to vehicle control,"AURKA; 24 h 0.1 μM, n = 1",−1.45
same,log2 rel. fc. to vehicle control,"AURKA; 24 h 0.1 μM, n = 2",−1.00
same,log2 rel. fc. to vehicle control,"AURKA; 24 h 1 μM, n = 1",−2.10
same,log2 rel. fc. to vehicle control,"AURKA; 24 h 1 μM, n = 2",−1.93
same,log2 rel. fc. to vehicle control,"BTK; 24 h 0.1 μM, n = 1",−1.65
same,log2 rel. fc. to vehicle control,"BTK; 24 h 0.1 μM, n = 2",−1.67
same,log2 rel. fc. to vehicle control,"BTK; 24 h 1 μM, n = 1",−2.02
same,log2 rel. fc. to vehicle control,"BTK; 24 h 1 μM, n = 2",−1.86
same,log2 rel. fc. to vehicle control,"MAPK9; 24 h 0.1 μM, n = 1",−0.69
same,log2 rel. fc. to vehicle control,"MAPK9; 24 h 0.1 μM, n = 2",−0.98
same,log2 rel. fc. to vehicle control,"MAPK9; 24 h 1 μM, n = 1",−1.83
same,log2 rel. fc. to vehicle control,"MAPK9; 24 h 1 μM, n = 2",−1.75
